Measurements from ChEMBL document CHEMBL5518222, “Retro-Inverso Collagen Modulator Peptide Derived from Serpin A1 with Enhanced Stability and Activity In Vitro” (J Med Chem, 2024).
Activity calls are given as the source filed them. The rule behind the calls is not given here. Peptide text beside a SMILES is read from it. * marks the point of attachment. Palmitoyl = CCCCCCCCCCCCCCCC(=O)*

How the values were obtained:
[1] = test system: NHDF; assay: Downregulation of enzyme-digested low molecular weight collagen level in neonatal HDF cell conditioned media at 20 uM incubated for 48 hrs by Western blot analysis; format: functional, cell-based; conditions: Homo sapiens
[2] = test system: NHDF; assay: Cytotoxicity against neonatal HDF cells assessed as reduction in cell viability incubated for 72 hrs by MTS assay; format: toxicity, cell-based; conditions: human
[3] = Upregulation of procollagen level in neonatal HDF cell conditioned media at 20 uM incubated for 72 hrs by Western blot analysis relative to control; format: functional, Homo sapiens, NHDF
[4] = test system: NHDF; assay: Upregulation of collagen level in neonatal HDF cell lysate at 20 uM incubated for 72 hrs by Western blot analysis; format: functional, subcellular; conditions: Homo sapiens
[5] = Stability of compound in human skin homogenate assessed as dermal protease mediated stability by measuring compound remaining measured after 24 hrs by HPLC-MS/MS analysis; format: ADME, tissue-based, Skin of body; conditions: read-out: Stability
[6] = molecular target: Matrix metalloproteinase-9 (Homo sapiens) (UniProt P14780); assay: Inhibition of MMP-9 (unknown origin)
[7] = test system: NHDF; assay: Inhibition of cell invasion in neonatal HDF cells assessed as decrease in number of migrated cells in acceptor chamber at 20 uM incubated for 72 hrs by Boyden chamber invasion assay; format: functional, cell-based; conditions: Homo sapiens
[8] = molecular target: T1, Neutrophil elastase (Homo sapiens) (UniProt P08246); assay: Inhibition of neutrophil elastase (unknown origin)
T1 sequence (whole entry): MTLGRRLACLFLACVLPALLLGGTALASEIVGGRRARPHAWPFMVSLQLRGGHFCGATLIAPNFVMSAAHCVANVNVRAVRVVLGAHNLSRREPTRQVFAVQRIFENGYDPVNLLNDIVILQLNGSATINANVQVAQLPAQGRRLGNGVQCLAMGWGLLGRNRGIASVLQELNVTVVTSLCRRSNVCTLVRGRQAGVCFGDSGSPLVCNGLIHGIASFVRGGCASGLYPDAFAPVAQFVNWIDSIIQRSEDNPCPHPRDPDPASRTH

Chain of Matrix metalloproteinase-9 (Homo sapiens) (P14780 whole entry): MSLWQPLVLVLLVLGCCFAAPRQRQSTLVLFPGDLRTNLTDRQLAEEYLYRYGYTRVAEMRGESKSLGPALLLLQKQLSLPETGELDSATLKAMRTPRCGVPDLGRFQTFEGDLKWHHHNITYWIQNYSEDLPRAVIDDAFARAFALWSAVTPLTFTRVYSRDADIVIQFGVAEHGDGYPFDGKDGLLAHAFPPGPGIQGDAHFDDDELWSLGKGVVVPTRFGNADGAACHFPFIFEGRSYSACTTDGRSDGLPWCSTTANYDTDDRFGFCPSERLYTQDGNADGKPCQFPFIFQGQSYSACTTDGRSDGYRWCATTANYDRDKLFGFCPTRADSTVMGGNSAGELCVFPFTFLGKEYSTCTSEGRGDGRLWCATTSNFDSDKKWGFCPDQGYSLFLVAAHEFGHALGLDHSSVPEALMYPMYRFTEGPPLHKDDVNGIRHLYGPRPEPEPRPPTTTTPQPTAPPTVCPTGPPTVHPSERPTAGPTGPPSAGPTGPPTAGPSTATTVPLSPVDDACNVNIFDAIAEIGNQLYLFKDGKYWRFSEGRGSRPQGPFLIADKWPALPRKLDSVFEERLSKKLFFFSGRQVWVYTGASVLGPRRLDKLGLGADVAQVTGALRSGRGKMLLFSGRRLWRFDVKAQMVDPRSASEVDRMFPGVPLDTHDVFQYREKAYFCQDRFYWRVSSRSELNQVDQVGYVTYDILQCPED

Compound | Activity [1] | Activity [2] | Activity [3] [%] | Activity [4] | remaining at 24 h [5] [%] | inhibition [6] | inhibition [7] | inhibition [8]
CC(=O)N[C@@H](CCCCN)C(=O)N[C@H](C(=O)N[C@H](C(=O)N[C@@H](CC(N)=O)C(N)=O)C(C)C)C(C)C | Active | Non-Toxic | 87 | Active |  |  |  | 
CC(=O)N[C@H](CCCCN)C(=O)N[C@@H](C(=O)N[C@@H](C(=O)N[C@H](CC(N)=O)C(N)=O)C(C)C)C(C)C |  | Non-Toxic |  | Active |  |  |  | 
CC(=O)N1CCC[C@H]1C(=O)N[C@H](C(=O)N[C@@H](CCC(N)=O)C(=O)N[C@@H](CCCCN)C(N)=O)[C@@H](C)O (Ac-PTQK-NH2) | Active | Non-Toxic | 31 | Active |  |  |  | 
CSCC[C@H](NC(C)=O)C(=O)NCC(=O)N[C@@H](CCCCN)C(=O)N[C@H](C(N)=O)C(C)C (Ac-MGKV-NH2) | Active | Non-Toxic | 116 | Active |  |  |  | 
Ac-MGKVVNPTQK-NH2 | Active |  | 57 | Active |  |  |  | 
CC(=O)N[C@H](C(=O)N[C@@H](CC(N)=O)C(=O)N1CCC[C@H]1C(=O)N[C@H](C(N)=O)[C@@H](C)O)C(C)C (Ac-VNPT-NH2) | Active | Non-Toxic | 48 | Active |  |  |  | 
CCCCCCCCCCCCCCCC(=O)N[C@@H](CCCCN)C(=O)N[C@H](C(=O)N[C@H](C(=O)N[C@@H](CCCCN)C(=O)N[C@@H](CO)C(=O)O)[C@@H](C)O)[C@@H](C)O (Palmitoyl-KTTKS-OH) |  |  |  |  | 36 |  |  | 
CC(=O)N[C@H](CC(N)=O)C(=O)N[C@@H](C(=O)N[C@@H](C(=O)N[C@H](CCCCN)C(N)=O)C(C)C)C(C)C |  | Non-Toxic |  | Active | 99.6 | inactive | Active | inactive
